pIC50: −log10 of the molar value.
Columns and labels:
[1] = target: T1, ALK2 R206H (GST-tagged mutant ALK2) (Homo sapiens, UniProt Q04771, R206H); assay: ALK binding assay (LANTHASCREEN TR-FRET competitive binding, displacement of Kinase Tracer 178); settings: ALK2 R206H, LANTHASCREEN TR-FRET competitive binding; read-out: Binding Assay (IC50)
T1 construct: purchased Carna Bioscience or ThermoFisher 09-148 or PV6232
T1 sequence (Q04771 21-509 R206H): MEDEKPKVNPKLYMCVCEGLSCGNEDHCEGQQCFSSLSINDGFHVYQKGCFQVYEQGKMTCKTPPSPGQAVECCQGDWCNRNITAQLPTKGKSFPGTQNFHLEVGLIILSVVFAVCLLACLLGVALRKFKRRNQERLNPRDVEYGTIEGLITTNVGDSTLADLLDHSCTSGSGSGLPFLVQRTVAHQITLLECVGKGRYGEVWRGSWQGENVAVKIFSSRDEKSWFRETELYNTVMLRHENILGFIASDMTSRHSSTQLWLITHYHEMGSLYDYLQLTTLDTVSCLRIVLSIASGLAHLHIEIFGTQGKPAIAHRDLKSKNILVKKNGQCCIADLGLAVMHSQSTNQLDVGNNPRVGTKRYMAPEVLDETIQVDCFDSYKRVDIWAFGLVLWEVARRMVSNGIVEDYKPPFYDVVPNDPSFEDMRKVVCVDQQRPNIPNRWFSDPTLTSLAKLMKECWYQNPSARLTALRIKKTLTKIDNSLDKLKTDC

[2] = target: T2, human ALK2 R206H (Homo sapiens, UniProt Q04771, R206H); assay: Cell-based ALK2-R206H cell activity assay (Smad1-Ser463/Ser465 phosphorylation by AlphaLISA in HEK293-ALK2-R206H cells); settings: read-out: Cell Line (Cell Assay IC50)
T2 construct: expressed in transfected cells; host or cells: HEK293 (ATCC CRL1573), lentivirus transduction, blasticidin selection
T2 sequence (Q04771 21-509 R206H): T1 sequence (Q04771 21-509 R206H)
How it was run: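 Stable HEK293 cells expressing C-terminally FLAG-tagged human ALK2 R206H (lentiviral, blasticidin-selected) were treated with compounds in 10-point, 3-fold dilutions from 10 μM or 1 μM top, in duplicate. Smad1 Ser463/Ser465 phosphorylation was read by AlphaLISA.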

| pIC50 [1] | pIC50 [2] | Compound |
| --- | --- | --- |
| > 8.00 | 6.30 to 7.00 | N[C@H](CO)c1ccc(-c2cc3c(N4CCN(C(=O)C5CC5)CC4)ccnn3c2)cc1 [Compound 752] |
| > 8.00 | > 7.00 | N[C@@H](CO)c1ccc(-c2cc3c(N4CCN(C(=O)C5CC5)CC4)ccnn3c2)cc1 [Compound 753] |
| > 8.00 | > 7.00 | CCOC(=O)N1CCN(c2ccnn3cc(-c4ccc([C@@H](N)CO)cc4)cc23)CC1 [Compound 754] |
| > 8.00 | 6.30 to 7.00 | NC1(c2ccc(-c3cc4c(N5CCN(C(=O)C6CC6)CC5)ccnn4c3)cc2)COC1 [Compound 755] |
| > 8.00 | 6.30 to 7.00 | O=C(C1CC1)N1CCN(c2ccnn3cc(-c4ccc(CNC5COC5)cc4)cc23)CC1 [Compound 760] |
| > 8.00 | > 7.00 | CC(C)(O)C(N)c1ccc(-c2cc3c(N4CCN(C(=O)C5CC5)CC4)ccnn3c2)cc1 (centres unmarked) [Compound 761] |
| > 8.00 | 6.30 to 7.00 | N[C@H](CO)c1ccc(-c2cc3c(N4CCN(C(=O)OC5COC5)CC4)ccnn3c2)cc1 [Compound 762] |
| > 8.00 | > 7.00 | N[C@@H](CO)c1ccc(-c2cc3c(N4CCN(C(=O)OC5COC5)CC4)ccnn3c2)cc1 [Compound 763] |
| > 8.00 | > 7.00 | CCOC(=O)N1CCN(c2ccnn3cc(-c4ccc(C(N)C(C)(C)O)cc4)cc23)CC1 (centres unmarked) [Compound 764] |
| > 8.00 | > 7.00 | NC1(c2ccc(-c3cc4c(N5CCN(C(=O)C6CC6)CC5)ccnn4c3)cc2)CCOCC1 [Compound 768] |
| > 8.00 | > 7.00 | CC(C)N[C@@H](CO)c1ccc(-c2cc3c(N4CCN(C(=O)C5CC5)CC4)ccnn3c2)cc1 [Compound 770] |
| > 8.00 | > 7.00 | CC(N)(CO)c1ccc(-c2cc3c(N4CCN(C(=O)OC5COC5)CC4)ccnn3c2)cc1 (centres unmarked) [Compound 771] |
| > 8.00 | 6.30 to 7.00 | O=C(OC1COC1)N1CCN(c2ccnn3cc(-c4ccc(C5CCNCC5)cc4)cc23)CC1 [Compound 773] |
| > 8.00 | > 7.00 | O=C(OC1COC1)N1CCN(c2ccnn3cc(-c4ccc([C@@H]5CCCNC5)cc4)cc23)CC1 [Compound 774] |
| > 8.00 | > 7.00 | O=C(OC1COC1)N1CCN(c2ccnn3cc(-c4ccc(N5CCNCC5)cc4)cc23)CC1 [Compound 775] |
| > 8.00 | > 7.00 | O=C(OC1COC1)N1CCN(c2ccnn3cc(-c4ccc(N5CCNCC5)cn4)cc23)CC1 [Compound 776] |
| > 8.00 | > 7.00 | CCOC(=O)N1CCN(c2ccnn3cc(-c4ccc([C@]5(OC)CCCNC5)cc4)cc23)CC1 [Compound 777] |
| > 8.00 | > 7.00 | CCOC(=O)N1CCN(c2ccnn3cc(-c4ccc([C@@]5(OC)CCCNC5)cn4)cc23)CC1 [Compound 778] |
| > 8.00 | > 7.00 | CC(C)(O)C(N)c1ccc(-c2cc3c(N4CCN(C(=O)OC5COC5)CC4)ccnn3c2)cc1 (centres unmarked) [Compound 779] |
| > 8.00 | > 7.00 | CCN[C@@H](CO)c1ccc(-c2cc3c(N4CCN(C(=O)OC5COC5)CC4)ccnn3c2)cc1 [Compound 780] |
| > 8.00 | > 7.00 | CCOC(=O)N1CCN(c2ccnn3cc(-c4ccc([C@@]5(OCC)CCCNC5)cc4)cc23)CC1 [Compound 782] |
| > 8.00 | > 7.00 | CCOC(=O)N1CCN(c2ccnn3cc(-c4ccc([C@]5(OCC)CCCNC5)cc4)cc23)CC1 [Compound 783] |

| pIC50 [1] | pIC50 [2] | Compound |
| --- | --- | --- |
| > 8.00 | > 7.00 | CO[C@]1(c2ccc(-c3cc4c(N5CCN(C(=O)NC(C)C)CC5)ccnn4c3)nc2)CCCNC1 [Compound 784] |
| > 8.00 | 6.30 to 7.00 | COC1(c2ccc(-c3cc4c(N5CCN(C(=O)NC(C)C)CC5)ccnn4c3)nc2)CCNCC1 [Compound 785] |
| > 8.00 | > 7.00 | CO[C@@]1(c2ccc(-c3cc4c(N5CCN(C(=O)NC(C)C)CC5)ccnn4c3)nc2)CCCNC1 [Compound 786] |
| > 8.00 | > 7.00 | CCOC(=O)N1CCN(c2ccnn3cc(-c4ccc([C@]5(OCC)CCCNC5)cn4)cc23)CC1 [Compound 787] |
| > 8.00 | > 7.00 | CCOC(=O)N1CCN(c2ccnn3cc(-c4ccc([C@@]5(OCC)CCCNC5)cn4)cc23)CC1 [Compound 788] |
| > 8.00 | < 6.30 | O=C(OC(CO)CO)N1CCN(c2ccnn3cc(-c4ccc(C5CCNCC5)cc4)cc23)CC1 [Compound 789, 1,3-dihydroxypropan-2-yl 4-(6-(4-(piperidin-4-yl)phenyl)pyrrolo[1,2-b]pyridazin-4-yl)piperazine-1-carboxylate] |
| > 8.00 | > 7.00 | CC(C)N[C@H](CO)c1ccc(-c2cc3c(N4CCN(C(=O)OC5COC5)CC4)ccnn3c2)cc1 [Compound 791] |
| > 8.00 | > 7.00 | CC(C)N[C@@H](CO)c1ccc(-c2cc3c(N4CCN(C(=O)OC5COC5)CC4)ccnn3c2)cc1 [Compound 792] |
| > 8.00 | > 7.00 | [2H]C([2H])([2H])C([2H])([2H])OC(=O)N1CCN(c2ccnn3cc(-c4ccc([C@@]5(OCC)CCCNC5)cn4)cc23)CC1 [Compound 793] |
| > 8.00 | > 7.00 | [2H]C([2H])([2H])C([2H])([2H])OC(=O)N1CCN(c2ccnn3cc(-c4ccc([C@]5(OCC)CCCNC5)cn4)cc23)CC1 [Compound 794] |
| > 8.00 | > 7.00 | CC(C)N1CCC(c2ccc(-c3cc4c(N5CCN(C(=O)OC6CC6)CC5)ccnn4c3)cc2)CC1 [Compound 795] |
| > 8.00 | > 7.00 | CCOC(=O)N1CCN(c2ccnn3cc(-c4ccc([C@]5(OC)CCCNC5)cn4)cc23)CC1 [Compound 796] |
| > 8.00 | > 7.00 | CCO[C@@]1(c2ccc(-c3cc4c(N5CCN(C(=O)NC(C)C)CC5)ccnn4c3)nc2)CCCNC1 [Compound 797] |
| > 8.00 | > 7.00 | CCO[C@]1(c2ccc(-c3cc4c(N5CCN(C(=O)NC(C)C)CC5)ccnn4c3)nc2)CCCNC1 [Compound 798] |
| > 8.00 | > 7.00 | COC1(c2ccc(-c3cc4c(N5CCN(C(=O)OC6COC6)CC5)ccnn4c3)cc2)CCOCC1 [Compound 799] |
| > 8.00 | > 7.00 | CO[C@]1(c2ccc(-c3cc4c(N5CCN(C(=O)OC6COC6)CC5)ccnn4c3)nc2)CCCNC1 [Compound 800] |
| > 8.00 | > 7.00 | CO[C@@]1(c2ccc(-c3cc4c(N5CCN(C(=O)OC6COC6)CC5)ccnn4c3)nc2)CCCNC1 [Compound 801] |
| > 8.00 | > 7.00 | CCOC(=O)N1CCN(c2ccnn3cc(-c4ccc(C5(OC)CCNC(C)(C)C5)cn4)cc23)CC1 (centres unmarked) [Compound 802] |
| > 8.00 | > 7.00 | CC(C)NC(C)(CO)c1ccc(-c2cc3c(N4CCN(C(=O)OC5COC5)CC4)ccnn3c2)cc1 (centres unmarked) [Compound 804] |
| > 8.00 | > 7.00 | CCN(CC)[C@@H](CO)c1ccc(-c2cc3c(N4CCN(C(=O)OC5COC5)CC4)ccnn3c2)cc1 [Compound 805] |
| > 8.00 | > 7.00 | O=C(C1CC1)N1CCN(c2ccnn3cc(-c4ccc(C5(C(F)(F)F)CCNCC5)cc4)cc23)CC1 [Compound 808] |
| > 8.00 | > 7.00 | CO[C@@]1(c2ccc(-c3cc4c(N5CCN(C(=O)[C@H]6C[C@H](C#N)C6)CC5)ccnn4c3)cc2)CCCNC1 [Compound 809] |

| Compound | pIC50 [1] | pIC50 [2] |
| --- | --- | --- |
| COC[C@H](C)N1CCC(OC)(c2ccc(-c3cc4c(N5CCN(C(=O)OC6COC6)CC5)ccnn4c3)nc2)CC1 [Compound 743] | > 8.00 | > 7.00 |
| COC[C@@H](C)N1CCC(OC)(c2ccc(-c3cc4c(N5CCN(C(=O)OC6COC6)CC5)ccnn4c3)nc2)CC1 [Compound 744] | > 8.00 | > 7.00 |
| COC[C@H](C)N1CCC(OC)(c2ccc(-c3cc4c(N5CCN(C(=O)[C@H]6C[C@H](C#N)C6)CC5)ccnn4c3)cc2)CC1 [Compound 745] | > 8.00 | > 7.00 |
| COC[C@@H](C)N1CCC(OC)(c2ccc(-c3cc4c(N5CCN(C(=O)[C@H]6C[C@H](C#N)C6)CC5)ccnn4c3)cc2)CC1 [Compound 746] | > 8.00 | > 7.00 |
| CC(C)N1CCC(c2ccc(-c3cc4c(N5CCN(C(=O)OC6COC6)CC5)ccnn4c3)cc2)(C(F)(F)F)CC1 [Compound 747] | > 8.00 | > 7.00 |
| COC[C@H](C)N1CCC(OC)(c2ccc(-c3cc4c(N5CCN(C(=O)[C@H]6C[C@H](C#N)C6)CC5)ccnn4c3)nc2)CC1 [Compound 748] | > 8.00 | > 7.00 |
| COC[C@@H](C)N1CCC(OC)(c2ccc(-c3cc4c(N5CCN(C(=O)[C@H]6C[C@H](C#N)C6)CC5)ccnn4c3)nc2)CC1 [Compound 749] | > 8.00 | > 7.00 |
| COC1(c2ccc(-c3cc4c(N5CCN(C(=O)NC(C)C)CC5)ccnn4c3)nc2)CCN([C@H](C)COC(F)F)CC1 [Compound 750] | > 8.00 | > 7.00 |

— patent US10233186B2, “Inhibitors of activin receptor-like kinase” (BLUEPRINT MEDICINES CORPORATION, priority 2016, dated 2019)
